Reference: US4764515A, “Antitussive and central sedative composition of d-isomer of 3-(4-phenyl-1-piperazinyl)-1,2-propanediol” (priority 1983, dated 1988)
“Also recorded” adds a separate entry of the source. Like-named read-outs stand apart in the source and are kept apart here.

Columns and labels:
[1] = tested on: oedema by carrageenin; assay: Carrageenin oedema test in the rat (anti-inflammatory activity); format: in vivo; settings: po, p.o. 1 h before phlogistic agent, C.L. 95%
From the text: (§1) Screening for anti-inflammatory activity has been carried out employing the established carrageenin and ovoalbumin oedema tests in the rat, according to the methods described by C. A. Winter et al., Proc. Soc. Exp. Biol. Med., 111, 544, 1962 and Turne in "Screening Methods in Pharmacology" Acad. Press N.Y., cpt. 14, p. 164, 1965, respectively.
(§2) The compounds under exam have been administered by the oral route one hour before the injection of the phlogistic agent.

[2] = tested on: oedema by ovoalbumin; assay: Ovoalbumin oedema test in the rat (anti-inflammatory activity); format: in vivo; settings: po, p.o. 1 h before phlogistic agent, C.L. 95%
From the text: as §1, §2

[3] = tested on: electrical stimulation of the vagus nerv; assay: Antitussive activity in the guinea pig after electrical stimulation of the vagus nerve; format: in vivo; settings: Cavia porcellus, iv, intravenously 5 min before electric stimulation, C.F. 95%, read-out: DE50 Electric stimulus (antitussive effect)
Protocol: (§3) The results of the antitussive activity tests, carried out in the guinea pig after electrical stimulation of the vagus nerv and exposure for 5 minutes to a 5% citric acid aerosol according to the methods of R. M. Piekirning et al., Arzn.
(§4) The compounds under exam have been administered intravenously 5 minutes before the electric stimulation and orally 60 minutes before the citric acid aerosol.

[4] = tested on: 5% citric acid aerosol; assay: Antitussive activity in the guinea pig after exposure to 5% citric acid aerosol; format: in vivo; settings: Cavia porcellus, po, read-out: DE50 5% Citric acid (antitussive effect)
[5] = tested on: Central Nervous System; assay: Influence on the sleeping time induced by barbiturates in the mouse (CNS activity); format: in vivo; settings: 30 min before secobarbital 35 mg/kg i.p., mean ± SE, controls 22.58 ± 1.14
From the text: (§5) Tests have been carried out to determine the CNS activity, by evaluating the influence on the sleeping time induced by barbiturates in the mouse, according to the method of F. M. Berger "Methods in Drug Evaluation" Proc. Int. Symp. Milan, September 1965, North Holland Pubbl. Co., and by recording the electroencephalographic and electromiographic curves in the rat with chronically implanted electrodes, calculating the time (in seconds) in the awakening and sleeping condition (including synchronized and unsynchronized sleep).
(§6) The compounds under exam have been administered orally, in the sleeping time test 30 minutes before the i.p. injection of 35 mg/kg of secobarbital, while in the electroencephalographic test at the beginning of recording.

[6] = Acute toxicity, mouse; settings: in vivo, 14 days from administration, C.L. 95%, read-out: DL50
From the text: (§7) Acute toxicity (at 14 days from the admi-
(§8) nistration) of (±) racemic dropropizine
(§9) (+) dextrorotatory isomer and (-) laevorotatory isomer

[7] = Acute toxicity, rat; settings: in vivo, 14 days from administration, C.L. 95%, read-out: DL50
From the text: as §7, §8, §9

[8] = tested on: Central Nervous System; assay: Electroencephalographic and electromiographic recording in the rat with chronically implanted electrodes (CNS activity); format: in vivo; settings: mean ± SE, controls 4.86 ± 0.60
From the text: as §5, §6

[9] = tested on: antitussive activity; assay: Antitussive activity (overall statement); format: in vivo, guinea pig; settings: in words; versus racemic mixture; listed as laevorotatory isomer
Protocol: as §3, §4

[10] = tested on: antiinflammatory activity; assay: Antiinflammatory activity (overall statement); format: in vivo, rat; settings: in words
From the text: as §1, §2

[11] = 3 h, 3th hour, read-out: DE50 Oedema by carrageenin 3th hour
[12] = 6 h, 6th hour, read-out: DE50 Oedema by carrageenin 6th hour
[13] = 1st hour, read-out: DE50 Oedema by carrageenin 1st hour
[14] = 3 h, 3th hour, read-out: DE50 Oedema by ovoalbumin 3th hour
[15] = 6 h, 6th hour, read-out: DE50 Oedema by ovoalbumin 6th hour
[16] = 1st hour, read-out: DE50 Oedema by ovoalbumin 1st hour
[17] = guinea pig, orally 60 min before citric acid aerosol (5 min exposure), C.F. 95%

Molecule `OCC(O)CN1CCN(c2ccccc2)CC1` (racemic) [(±), 3-(4-phenyl-1-piperazinyl)-1,2-propanediol] has an ED50 [1, 11] of 77.9 mg/kg, an ED50 [1, 12] of 117 mg/kg and an ED50 [1, 13] of 39 mg/kg. For the same molecule, the ED50 [2, 14] was 28.5 mg/kg, the ED50 [2, 15] was 37.1 mg/kg and the ED50 [2, 16] was 23.6 mg/kg. The ED50 [3] was 11.7 mg/kg, the ED50 [4, 17] was 117 mg/kg and the “Duration of the sleeping time induced by barbiturates” value (“Duration of the sleeping time induced” below) ([5]; 50 mg/kg p.o.) was 118.83 ± 25.69 min. The “Duration of the sleeping time induced” value ([5]; 100 mg/kg p.o.) was 132.33 ± 13.16 min, the “Duration of the sleeping time induced” value ([5]; 200 mg/kg p.o.) was 134.16 ± 17.55 min and the LD50 at 336 h ([6]; ip) was 340 mg/kg. The LD50 at 336 h ([6]; po) was 900 mg/kg, the LD50 at 336 h ([7]; ip) was 393 mg/kg and the LD50 at 336 h ([7]; po) was 607 mg/kg.
With `OC[C@H](O)CN1CCN(c2ccccc2)CC1` [(+), d-isomer of 3-(4-phenyl-1-piperazinyl)-1,2-propanediol] the ED50 [1, 11] was 80.5 mg/kg, the ED50 [1, 12] was 69.7 mg/kg and the ED50 [1, 13] was 43.9 mg/kg. For the same molecule, the ED50 [3] was 23.5 mg/kg, the ED50 [4, 17] was 141 mg/kg and the “Time spent in the sleeping condition” value ([8]; 25 mg/kg p.o.) was 6.18 ± 0.72 s. For the same molecule, the “Time spent in the sleeping condition” value ([8]; 50 mg/kg p.o.) was 12.36 ± 0.9 s, the “Time spent in the sleeping condition” value ([8]; 100 mg/kg p.o.) was 28.92 ± 1.7 s and the LD50 at 336 h ([6]; ip) was 319 mg/kg. For the same molecule, the LD50 at 336 h ([6]; po) was 872 mg/kg, the LD50 at 336 h ([7]; ip) was 363 mg/kg and the LD50 at 336 h ([7]; po) was 721 mg/kg.
With `OC[C@@H](O)CN1CCN(c2ccccc2)CC1` [(-), (-)-dropropizine] the ED50 [1, 11] was 212 mg/kg, the ED50 [1, 12] was 241 mg/kg and the ED50 [1, 13] was 233 mg/kg. For the same molecule, the ED50 [2, 14] was 72.2 mg/kg, the ED50 [2, 15] was 121 mg/kg and the ED50 [2, 16] was 55.6 mg/kg. The ED50 [3] was 13.5 mg/kg, the ED50 [4, 17] was 151 mg/kg and the “Duration of the sleeping time induced” value ([5]; 50 mg/kg p.o.) was 29.5 ± 2.59 min. The “Duration of the sleeping time induced” value ([5]; 100 mg/kg p.o.) was 54.4 ± 7.36 min, the “Duration of the sleeping time induced” value ([5]; 200 mg/kg p.o.) was 128.83 ± 17.14 min and the “Time spent in the sleeping condition” value ([8]; 25 mg/kg p.o.) was 5.8 ± 0.84 s. The “Time spent in the sleeping condition” value ([8]; 50 mg/kg p.o.) was 5.7 ± 0.48 s, the “Time spent in the sleeping condition” value ([8]; 100 mg/kg p.o.) was 13.68 ± 1.80 s and the LD50 at 336 h ([6]; ip) was 408 mg/kg. It also gave an LD50 at 336 h ([6]; po) of 1290 mg/kg, an LD50 at 336 h ([7]; ip) of 401 mg/kg and an LD50 at 336 h ([7]; po) of 887 mg/kg. The antitussive activity [9] was “unchanged antitussive and antiinflammatory activity; also recorded: same antitussive activity as the racemic mixture” and the antiinflammatory activity [10] was “unchanged antitussive and antiinflammatory activity”.
For `COc1ccc2c3c1O[C@H]1[C@@H](O)C=C[C@H]4[C@@H](C2)N(C)CC[C@@]341` [Codeine, codeine, reference compound], the ED50 [4] was 65.1 mg/kg.
